Assay results: patent US20070093539A1, “N-hydroxy-4-(3-pheyl-5-methyl-isoxazole-4-yl)-benzenesulfonate solvates” (priority 2003, published 2007)

What was measured:
[1] = tested on: carrageenan induced inflammatory hyperalgesia; assay: Carrageenan induced inflammatory hyperalgesia (Randall-Selitto), chronic model; type: in vivo, male SPRD rats; details: 30 mg/kg p.o.
Method: (§1) Edema was induced by injection of Carrageenan (CA) into plantar surface of right hind paw. Male SPRD rats (weighing 140-190 g) were used n=6-8/group). Then the mechanical pain threshold of the inflamed hind paw was determined with an analgesimeter ((Ugo Basile, type: 37215).
(§2) This assay monitors the decrease of the pain threshold, and the time depending changing of the pain by mechanical pain stimulus. Analgesics can increase the pain threshold of the inflamed hinds and this effect is in terms of percentage of reversal.
(§3) Untreated right hind paw was compressed with a progressively increasing pressure. The pressure was recorded (in grams) when the animal first vocalized or made a vigorous attempt to remove the paw. It was determined to baseline threshold of the untreated paw. (average: 80-110 g). After it the animals were treated with carrageenan. After the treatment the edema and the threshold were checked in a given times. […] (Average of inflammation induced pain threshold was 20-25 g, this means 65-80% decrease related to the baseline.)
(§4) The chronic phase of the inflammantion and the decreasing of the threshold were induced by higher dose of CA. Inflammation induced threshold decreasing was measured 24 hours after the CA injection (150 μl of 2% solution). ) After it the animals were treated with test compounds and valdecoxib (30-30 mg/kg p.o.). Change in the threshold was checked at 1 h, 2 h, and 3 h following drug administration. In both model used control groups were treated orally only with solvents at the time of treatments. In both protocol the effects of the test compounds were calculated in percentage reversal of mechanical hiperalgesia: [formula] • T3h: In acute model, the threshold in the control group at 3 h after the CA injection (in gram) • T24h: In chronic model, the threshold in the control group at 24 h after the CA injection (in gram) • T0h: The threshold before the CA injection (in gram) • TXh In acute model, at 3h after the CA injection • TXh=In chronic model, at 25 h, 26 h, 27 h after the CA injection

[2] = tested on: inflammatory mechanical allodynia induced by carrageenan; assay: Carrageenan-induced inflammatory mechanical allodynia (von Frey); type: in vivo, male Sprague-Dawley rats; details: 30 mg/kg p.o.
Method: The-threshold of pain of the animals was measured by von Frey apparatus (IITC, type: 1601 C). […] The values were registered in the times of the pick up or raises. During each measurment the threshold was determined at least thrice and the avarage was calculated from the peak values.
Male Sprague-Dawley rats (weighing 250-300 g) were used (n=5-6/group). 100 μl of saline solution of carrageenant (CA) was injected to the middle of the paw. The stimulus threshold was measured after it, and the treatment was completed with gastro-probe per os. The effects of the materials were measured in 30, 60, 90, 120 minutes after the treatments. The effects were compared for control group treatment with vehicle (solution of 2% Tween-80).
The effect was calculated as follows: [formula] where tx=30, 60, 90, 120 min
In the acute pain model the analgesic effects of the valdecoxib and compound of example 1 were considerable with dose of 30 mg/kg p.o. once.

[3] = tested on: carrageenan and kaolin induced monoarthritis; assay: Carrageenan and kaolin induced monoarthritis model (incapacitance test); type: in vivo, rats; details: 10 mg/kg p.o.
Method: The Incapacitance tester is an apparatus for measure the changes of the functional parameters induced of the pain, which can register the bearing on the hind limb, the amount of the moving and the changing of the centre of gravity. Knee-joint of the right-back limb was treated with solution of 100 μl 2% carrageenan and kaolin. During 3-4 hours after the treatment arthritis was emerged in the capsular ligament of the treated limb. This inflammation still exists at 24 hours after the treatment. Because of the pain the animals coddles the treated limbs, thy weign on it less. Change of weight load is measurable with Incapacitance tester device in grams. The incapacitance was calculated as follows: [formula] Analgesic-antiinflammantory compounds could increase the stimulus threshold of the knee-joint, and consequently to improve the functional parameters of the limb. Measure of this can be counted by the decrease of the loading of left leg i.e. in terms of percentage of reversal. [formula] The Incapacitance induced by administration of irritants in left paw was measured at 4 hour after the injection. Afterwards the animals (n=24-32/group) were. orally treated with dose of 10 mg/kg valdecoxib and test compounds. Measurements were done at 1 and 2 hours after the treatments.

[4] = tested on: carrageenan induced inflammatory hyperalgesia; assay: Carrageenan induced inflammatory hyperalgesia (Randall-Selitto), acute model; type: in vivo, male SPRD rats; details: Acut model, 10 mg/kg p.o.
Method: as §1, §2, §3
1 hour after the CA injection (100 μl of 2% solution) the animals were treated with test compounds and valdecoxib (10-10 mg/kg p.o.). […]
as §4

[5] = tested on: carrageenan-induced foot paw edema; assay: Carrageenan-induced rat foot paw edema assay; type: in vivo, male Wistar rats; details: for ED30 of edema inhibition: p.o.
Method: The edema was induced in male Wistar rats (140-150 g) by subcutaneous injection of carrageenan (50 μl of 1% suspension) into the right hind paw. The formed inflammation was measured with plethysmometer (Ugo Basile, type: 7150). The treated paw was placed into the plethysmometer (filled with 0.3% additives in 0.5% saline), the level of the inflammation was detected by the volume of the displaced solution. This volume was compared with the initial preinjection paw volume. Level of the inflammation (ml)=volume after CA treatment (ml)−volume before CA treatment (ml) The inflammation induced in treated group was compared to control group (which was given only vehicle). The sample materials and the solvent were dosed per os via gastro-sonde 1 hour before the CA treatment. The volume of the treated limb was measured at 3h and 5h after CA treatments. The change of the inflammation level was calculated as follows: [formula]

isolated rabbit heart = assay: Cardiac effects on the isolated rabbit heart (Langendorff, coronary flow); set-up: species or system New Zealand white rabbits; details: 1, 3 and 10 μM, 4-4 hearts
Method: New Zealand white rabbits weighing 1.5-2 kg were used. The animals were exsanguinated and after thoracotomy the hearts were excised and mounted on a Langendorff-type perfusion apparatus. The hearts were perfused via the aorta with oxigenated, thermostated (37° C.) Krebs solution. A constant perfusion pressure of 80 cmH2O was applied. The test compounds were dissolved in the perfusion solution to obtain the requested concentrations.
The basic value of coronary flow was determined. Afterwards the small amount of compounds were added to perfusion liquid and the perfusion was measured for 30 minutes at every 10 minutes. Afterwards 30 minutes perfusion was performed without compound and the measure was repeated with the medium and high amount of compounds.
The effects of same concentration of valdecoxib and compound of example 1 were investigated in 4-4 hearts (1, 3 and 10 μM). Valdecoxib had no effect in either concentration. It can clearly be shown that the coronary flow was increased dose dependently. This effect is advantageous in practice of clinical therapy, because the painful arthritic and degenerative joint and bone deformations are emerged rather in old age, when diseases of the vascular system are also frequently encountered, which can conduce to disorder of vascular bed of the heart.

**Q.** For Cc1onc(-c2ccccc2)c1-c1ccc(S(N)(=O)=O)cc1 [valdecoxib, reference compound], which “Analgesic effect in % after p.o. treatment” value ([1]; 1 hour) is on record?
**A.** Its value is 24.2%.

**Q.** And the “Analgesic effect in % after p.o. treatment” value ([1]; 2 hours)?
**A.** Its value is 36.9%.

**Q.** What about the “Analgesic effect in % after p.o. treatment” value ([1]; 3 hours) of the same molecule?
**A.** The value was 19.9%.

**Q.** What about the “Analgesic effect in % after p.o. treatment” value ([2]; 30 min.) of the same molecule?
**A.** The value was 69.2%.

**Q.** What about the “Analgesic effect in % after p.o. treatment” value ([2]; 1 hour) of the same molecule?
**A.** The value was 60.0%.

**Q.** What about the “Analgesic effect in % after p.o. treatment” value ([2]; 1.5 hour) of the same molecule?
**A.** The value was 57.7%.

**Q.** And the “Analgesic effect in % after p.o. treatment” value ([2]; 2 hours)?
**A.** The value was 47.8%.

**Q.** And the “Analgesic effect (% reversal) after p.o. treatment” value ([3]; 1 hour)?
**A.** The value was 52.1 % reversal.

**Q.** And the “Analgesic effect (% reversal) after p.o. treatment” value ([3]; 2 hours)?
**A.** The value was 62.4 % reversal.

**Q.** What about the “Analgesic effect in % after p.o. treatment” value ([4]; 2 hours) of the same molecule?
**A.** The value was 50.5%.

**Q.** And the “Analgesic effect in % after p.o. treatment” value ([4]; 3 hours)?
**A.** The value was 59.9%.

**Q.** What about the “Analgesic effect in % after p.o. treatment” value ([4]; 4 hours) of the same molecule?
**A.** The value was 33.2%.

**Q.** And the “edema inhibition effect %” value ([5]; 0.1 mg/kg p.o., 4 hours after treatment)?
**A.** Its value is 29.4%.

**Q.** What about the “edema inhibition effect %” value ([5]; 0.1 mg/kg p.o., 6 hours after treatment) of the same molecule?
**A.** The value was 25.8%.

**Q.** What about the “edema inhibition effect %” value ([5]; 0.3 mg/kg p.o., 4 hours after treatment) of the same molecule?
**A.** The value was 34.1%.

**Q.** And the “edema inhibition effect %” value ([5]; 0.3 mg/kg p.o., 6 hours after treatment)?
**A.** The value was 27.3%.

**Q.** And the “edema inhibition effect %” value ([5]; 1.0 mg/kg p.o., 4 hours after treatment)?
**A.** The value was 40.1%.

**Q.** And the “edema inhibition effect %” value ([5]; 1.0 mg/kg p.o., 6 hours after treatment)?
**A.** Its value is 37.8%.

**Q.** What about the “edema inhibition effect %” value ([5]; 3.0 mg/kg p.o., 4 hours after treatment) of the same molecule?
**A.** Its value is 47.7%.

**Q.** What about the “edema inhibition effect %” value ([5]; 3.0 mg/kg p.o., 6 hours after treatment) of the same molecule?
**A.** Its value is 45.8%.

**Q.** And the “ED30 of edema inhibition” value ([5]; 4 hours after treatment)?
**A.** The value was 0.2 mg/kg.

**Q.** What about the “ED30 of edema inhibition” value ([5]; 6 hours after treatment) of the same molecule?
**A.** The value was 0.3 mg/kg.

**Q.** And the “effect on coronary flow (in words)” value (isolated rabbit heart)?
**A.** The value was “no effect”.
